# Tested on: CAR.GD2 T-cells
# Assay: In vivo activation of iC9 suicide gene by AP1903 in PDX-MB mouse model
# Set-up: species or system NSG mice
# Experimental: The in vivo activity of AP1903 on apoptosis induction of CAR. GD2 T-cells was assessed in in vivo PDX-MB mouse model. Briefly, 2×10^5 Med-411FH mCherry/Luciferase were orthotopic infused in 5-week-old female NSG mice. After tumor engraftment, confirmed by bioluminescence monitoring, mice received an intravenous injection (i.v.) of 10×10^6 of NT T or genetically modified CAR.GD2 T cells. Ten days later, when the presence of circulating T cells was confirmed by flow cytometric analysis, mice were randomly divided in four groups and treated or not treated by intraperitoneal (i.p.) infusion with AP1903 (100 mg/mouse) on day +11, day +12 and day +13 (NT-T no AP1903, NT-T AP1903+ or CAR. GD2-T no AP1903, CAR.GD2-T AP1903+). The residual of effector cells was evaluated 24 hours after the last AP1903 treatment by flow cytometric analysis in the peripheral blood or histologic and IHC analysis in brain/tumor tissue. Animals were sacrificed and brains were fixed in 4% formaldehyde in 0.1 mol/L phosphate buffer (pH 7.2) and paraffin embedded. AP1903 (cat. No. 6130, Biotechne-TOCRIS).
# The histopathologic analysis was performed as previously reported^74. Briefly, after Haematoxylin/Eosin staining for IHC analysis, the sections were cut to 2.5 μm thick, dewaxed, and rehydrated. Epitope retrieval was performed by boiling the slides with EDTA (pH 9). Endogenous peroxidase was blocked with 3% hydrogen peroxide for 10 minutes followed by another blocking step in 5% serum albumin (BSA) for 1-hour RT. The sections were then incubated with anti-CD3 antibody (1:100, DAKO) or anti-Ki67 (1:100, Abcam) at 4° C. overnight. Secondary biotinylated antibody (K8024, Dako, Carpinteria, USA) and the peroxidase DAB kit (Dako, Carpinteria, USA) were used to reveal the primary antibodies. Slides were then counterstained with hematoxylin, dehydrated with a series of alcohol solutions (70%-100%), followed by three changes of Diasolv and mounted with Diamount (Diapath). Analysis was performed using standard microscopy.
structure (smiles),measurement,setting,value
CC[C@H](C(=O)N1CCCC[C@H]1C(=O)O[C@H](CCc1ccc(OC)c(OC)c1)c1cccc(OCC(=O)NCCNC(=O)COc2cccc([C@@H](CCc3ccc(OC)c(OC)c3)OC(=O)[C@@H]3CCCCN3C(=O)[C@@H](CC)c3cc(OC)c(OC)c(OC)c3)c2)c1)c1cc(OC)c(OC)c(OC)c1 [AP1903],circulating CAR.GD2-T cells,"AP1903 i.p. 100 mg/mouse on three consecutive days, compared to untreated",significant reduction
same,tumor-infiltrating CD3+ cells (anti-hCD3 IHC on cerebella slides),AP1903 i.p. on three consecutive days,eliminate tumor-infiltrating CD3+ cells
same,crossing of the BBB,systemic (i.p.) administration,cross the BBB

# — US20260265408A1, “GD2-SPECIFIC CHIMERIC ANTIGEN RECEPTOR EFFECTOR CELLS FOR USE IN THE TREATMENT OF SOLID TUMORS, POSSIBLY IN COMBINATION WITH ENHANCER OF ZESTE HOMOLOG 2 (EZH2) INHIBITORS” (priority 2023, published 2026)
